Measurements from patent US20180153993A1, “COMPOSITIONS AND METHODS FOR TREATMENT AND PREVENTION OF CARDIOVASCULAR DISEASES” (The Chinese University of Hong Kong, priority 2016, published 2018).

Columns and labels:
YAP/TAZ [1] = assay: YAP/TAZ reporter (8xGTIIC-luc) gene activity in HUVECs; type: cell-based, human
YAP = YAP phosphorylation (Ser127, pYAP) by immunoblotting in HUVECs; type: cell-based, human
Description: Cells or tissues were homogenized in cold RIPA lysis buffer supplemented with complete protease inhibitors cocktail and phosSTOP phosphatase inhibitor (Roche). The protein concentration was determined using Bradford Assay (Bio-Rad). Ten micrograms of protein were resolved by SDS-polyacrylamide gel electrophoresis and transferred to the PVDF membrane (Bio-Rad). Target protein was detected using specific primary antibody. Bound antibodies were detected by horseradish-peroxidase-conjugated secondary antibody and visualized by enhanced chemiluminescence (Cell Signaling Technology). Experiments were repeated three times and the target protein level was quantified by imageJ and normalized to internal control (or pYAP was normalized by total YAP) (FIGS. 10 and 11).
(§1) HUVECs and human aortic ECs were purchased from Lonza (EGM, Clonetics, Lonza, Walkersville, Md., USA). Lonza guarantees that the cells express CD31/105, von Williebrand Factor VIII, and are positive for acetyated low density lipoprotein uptake. Mycoplasma contamination was not tested during the experiments. HUVECs maintained in EGM supplemented with EGS and FBS at 37° C. in an incubator with 95% humidified air and 5% CO2 and passed every 3 days. Cells within seven passages were used in in vitro study.

ApoE−/− mice = assay: Oral administration of MnCl2 in ApoE-/- mice on Western diet, Oil Red O staining of atherosclerotic plaques; type: in vivo, mouse; conditions: Western diet 12 weeks, MnCl2 oral in drinking water 5 mg/kg body weight
Description: ApoE^−/− mice (male, 12 weeks old) were fed a Western diet, and MnCl2 was administered through voluntary water consumption. Water consumption rate was predetermined by monitoring the volume of water remained. MnCl2 was supplemented to drinking water to achieve 5 mg/kg body weight. Mice body weight and water consumption were adjusted weekly to adapt to the change of body weight and water consumption. After feeding on the Western diet for 3 months, the mice were killed and the atherosclerotic plaque formation was determined by Oil Red O staining.
The ApoE^−/− mice were killed by CO2 asphyxiation. Mouse aortas were dissected in cold PBS and cut open to expose the atherosclerotic plaques. After fixation in 4% formaldehyde for 16 h at 4° C., the tissues were first rinsed in water for 10 min and then in 60% isopropanol. The aortas were stained with Oil Red O for 15 min with gentle shaking, and rinsed again in 60% isopropanol and then in water for three rinses. The samples were fixed on the cover slides with the endothelial surface facing upwards. The images were recorded using an HP Scanjet G4050. The plaque areas were determined using National Institutes of Health ImageJ software and calculated by expressing the plaque area relative to the total vascular area.

YAP/TAZ [2] = assay: YAP/TAZ nuclear exportation in HUVECs; type: cell-based, human
RhoA = assay: GST-RBD pull-down for active RhoA (GTP-RhoA) detection; type: cell-based, human; conditions: MnCl2 treatment
Description: GST-RBD recombinant protein was purified from BL21 (DE3) Escherichia coli and affinity conjugated to glutathione sepharose beads (Pharmacia). For GST affinity pull-down, 10^7 cells were lysed in 1 ml Weak Lysis Buffer (Beyotime) supplemented with protease inhibitors (Roche). Cell lysates were centrifuged at 15,000 g at 4° C. for 20 min to remove cell debris. Cell lysates were incubated in sepharose beads conjugated with 1 μg GST-RBD and incubate at 4° C. for 2 h with constant agitation, and precipitated by centrifugation at 1,000 r.p.m. for 10 min. After three washes, beads were collected by centrifugation and boiled in 2× SDS loading buffer for 5 min. The active RhoA was determined by western blotting.

YAP/TAZ [3] = assay: YAP/TAZ reporter gene activity assay of anti-atherosclerotic agents (YAP/TAZ inhibition test); type: cell-based, human; conditions: working concentrations of Table 1: apelin 100 nM, ApoA1 10 μg/mL, niacin 3 to 5 mM, statins 1-10 μM
Excerpt: Adenovirus-mediated reporter system and immortalized human aortic endothelial cells (HAECs) are used for drug screening. […] Endothelial cells express specific receptors that determine their unique response to different drug treatment. Therefore, it is necessary to use endothelial cells to study the YAP/TAZ inhibitory effect of lead drugs. Since primary endothelial cells from different donors contain distinct genetic background, which might cause significant variation between different batches of experiments, the immortalized human aortic endothelial cells are used. However, endothelial cells are difficult to be transformed, which could delay research progress and increase cost. To overcome this problem, the inventors have generated adenoviral expressing YAP/TAZ luciferase reporter and renilla internal control. The entire screening process can be completed in two days.

YAP/TAZ [4] = assay: YAP/TAZ target gene expression (CTGF, CYR61), quantitative real-time PCR in HUVECs; type: cell-based, human; conditions: CTGF and CYR61
Description: RNA was extracted by using TRIzol Reagent (Thermo) according to the manufacturer's protocol. cDNA was synthesized using a High-Capacity cDNA Reverse Transcription Kit (Thermo). Quantitative PCR was performed using SYBR Select (Thermo) following the manufacturer's protocol. GAPDH was used as the internal control. Primers used for quantitative real-time PCR were included in Table 2.
as §1

Compound: [Cl][Mn][Cl] [MnCl2]
- YAP/TAZ reporter gene activity (YAP/TAZ [1]): reduced YAP/TAZ reporter gene activity
- YAP phosphorylation (pYAP) (YAP; MnCl2 0.5 mM): increased pYAP
- atherosclerotic plaque formation (ApoE−/− mice): reduced plaque formation
- YAP/TAZ nuclear exportation (YAP/TAZ [2]): induced YAP/TAZ nuclear exportation
- GTP-RhoA (active RhoA) (RhoA): GTP-RhoA suppression

Compound: O=C(O)c1cccnc1 [niacin, Nicotinic acid]
- YAP/TAZ activity (reporter gene) (YAP/TAZ [3]): suppressed YAP/TAZ activity

Compound: Apelin
- YAP/TAZ activity (reporter gene) (YAP/TAZ [3]): suppressed YAP/TAZ activity

Compound: ApoA1
- YAP/TAZ activity (reporter gene) (YAP/TAZ [3]): suppressed YAP/TAZ activity

Compound: GRGDSP
- YAP phosphorylation (pYAP) (YAP; GRGDSP 100 μg ml−1): increased pYAP
- YAP/TAZ target gene expression (YAP/TAZ [4]): suppressed YAP/TAZ target gene expression
